Reference: patent US9730944B2, “Antiviral activity of novel bicyclic heterocycles” (priority 2010, dated 2017)
Converted amounts (≈) assume the structure as drawn. Where two headings read alike, the source gives them in different places.

Legend:
[1] = tested on: genotype 1b replicon; test: HCV genotype 1b replicon potency in R-luc cells, bioluminescence; type: cell-based; details: 72 hours, average of two or more independent experiments ± std. dev, read-out: Stable replicon cell lines EC50 (μM) Genotype1b (R-luc)
[2] = tested on: infectious genotype 2a virus (a J6/JFH-1 chimera); test: JFH-1 HCV-2a virus assay in Lunet-CD81 cells, NS3 expression readout; type: cell-based
[3] = tested on: genotype 1a H-77 replicon; test: HCV genotype 1a replicon potency in GLuc-1 cells, bioluminescence; type: cell-based; details: 72 hours, average of two or more independent experiments ± std. dev, read-out: Stable replicon cell lines EC50 (μM) Genotype 1a (Gluc-1)
[4] = tested on: genotype 1a H-77 replicon; test: HCV-1a replicon potency in RLuc-1 cells, bioluminescence; type: cell-based; details: for HCV-1a Replicon Selectivity Index: CC50/EC50, genotype 1a replicon
[5] = tested on: poliovirus (PV type 3); test: microbe, parasite or virus in culture; type: cell-based; details: Enterovirus C, read-out: PV-3 EC50
[6] = tested on: poliovirus (PV type 1); test: microbe, parasite or virus in culture; type: cell-based; details: Enterovirus C, read-out: PV-1 EC50
[7] = Cytostatic/cytotoxic effect in Hela Rh cells (rhinovirus methodology, MTS); details: human, CC50, Hela Rh cells
[8] = tested on: hRV-9; test: Rhinovirus type 9 antiviral assay in Hela Rh cells, MTS readout; type: cell-based, Human rhinovirus; details: Human rhinovirus sp., HRV9, HeLa Rh, Hela Rh cells; read-out: hRV-9 EC50
[9] = tested on: hRV-86; test: Rhinovirus type 86 antiviral assay in Hela Rh cells, MTS readout; type: cell-based, Human rhinovirus; details: Human rhinovirus sp., HRV86, HeLa Rh, Hela Rh cells; read-out: hRV-86 EC50
[10] = tested on: hRV-14; test: Rhinovirus type 14 antiviral assay in Hela Rh cells, MTS readout; type: cell-based, Human rhinovirus; details: Rhinovirus B, HRV14, HeLa Rh, Hela Rh cells; read-out: hRV-14 EC50
[11] = in vitro; details: human
[12] = in vitro; details: human, PV CC50
[13] = tested on: HIV-2 strain (ROD); test: Inhibition of replication of HIV-2 (ROD strain) in MT-4 cells, MTT assay; type: cell-based; details: Human immunodeficiency virus 2, MT4, 120 h, read-out: EC50 (μM) HIV-2 (ROD)
[14] = tested on: poliovirus (PV type 2); test: microbe, parasite or virus in culture; type: cell-based; details: Enterovirus C, read-out: PV-2 EC50
[15] = tested on: HIV-1 strain IIIB; test: Inhibition of replication of HIV-1 (IIIB strain) in MT-4 cells, MTT assay; type: cell-based; details: Human immunodeficiency virus 1, IIIB, MT4, 120 h, read-out: EC50 (μM) HIV-1 (IIIB)
[16] = tested on: hRV-45; test: Rhinovirus type 45 antiviral assay in Hela Rh cells, MTS readout; type: cell-based, Human rhinovirus; details: Human rhinovirus sp., HRV45, HeLa Rh, Hela Rh cells; read-out: hRV-45 EC50
[17] = tested on: hRV-63; test: Rhinovirus type 63 antiviral assay in Hela Rh cells, MTS readout; type: cell-based, Human rhinovirus; details: Human rhinovirus sp., HRV63, HeLa Rh, Hela Rh cells; read-out: hRV-63 EC50
[18] = Cytotoxicity in HCV-1a replicon cells, Promega CellTiter-Glo cell viability assay
[19] = in vitro; details: African green monkey, PV CC50
[20] = tested on: hRV-29; test: Rhinovirus type 29 antiviral assay in Hela Rh cells, MTS readout; type: cell-based; details: Human rhinovirus sp., HRV29, HeLa Rh, Hela Rh cells; read-out: hRV-29 EC50
[21] = tested on: hRV-2; test: Rhinovirus type 2 antiviral assay in Hela Rh cells, MTS readout; type: cell-based, Human rhinovirus; details: Rhinovirus A, HRV2, HeLa Rh, Hela Rh cells; read-out: hRV-2 EC50
[22] = tested on: hRV-39; test: Rhinovirus type 39 antiviral assay in Hela Rh cells, MTS readout; type: cell-based, Human rhinovirus; details: Human rhinovirus sp., HRV39, HeLa Rh, Hela Rh cells; read-out: hRV-39 EC50
[23] = tested on: hRV-72; test: Rhinovirus type 72 antiviral assay in Hela Rh cells, MTS readout; type: cell-based, Human rhinovirus; details: Human rhinovirus sp., HRV72, HeLa Rh, Hela Rh cells; read-out: hRV-72 EC50
[24] = tested on: hRV-15; test: Rhinovirus type 15 antiviral assay in Hela Rh cells, MTS readout; type: cell-based, Human rhinovirus; details: Human rhinovirus sp., HRV15, HeLa Rh, Hela Rh cells; read-out: hRV-15 EC50
[25] = tested on: hRV-85; test: Rhinovirus type 85 antiviral assay in Hela Rh cells, MTS readout; type: cell-based, Human rhinovirus; details: Human rhinovirus sp., HRV85, HeLa Rh, Hela Rh cells; read-out: hRV-85 EC50
[26] = tested on: hRV-41; test: Rhinovirus type 41 antiviral assay in Hela Rh cells, MTS readout; type: cell-based, Human rhinovirus; details: Human rhinovirus sp., HRV41, HeLa Rh, Hela Rh cells; read-out: hRV-41 EC50
[27] = tested on: hRV-70; test: Rhinovirus type 70 antiviral assay in Hela Rh cells, MTS readout; type: cell-based, Human rhinovirus; details: Human rhinovirus sp., HRV70, HeLa Rh, Hela Rh cells; read-out: hRV-70 EC50
[28] = tested on: hRV-42; test: Rhinovirus type 42 antiviral assay in Hela Rh cells, MTS readout; type: cell-based, Human rhinovirus; details: Human rhinovirus sp., HRV42, HeLa Rh, Hela Rh cells; read-out: hRV-42 EC50
[29] = Cytotoxicity in G-luc replicon cells, Promega CellTiter-Glo cell viability assay; details: G-luc (GLuc-1) HCV genotype 1a H-77 replicon cells
[30] = tested on: RLuc-1 cells; test: Cytotoxicity in HCV-1a replicon cells, Promega CellTiter-Glo cell viability assay; details: read-out: HCV-1a Replicon CC50; replicon cells, 72 hours, CellTiter-Glo
[31] = J6/JFH-1 chimera, MOI of 1, 72 hours, NS3 readout, read-out: Genotype 2a Virus (Lunet-CD81) EC50
[32] = Hepatitis C virus, 72 h, read-out: HCV-1a Replicon EC50 (μM)
[33] = MT-4 cells, MTT assay, five days after infection, 50% protection from cytopathic effect
[34] = Hepatitis C virus, 72 h, read-out: Genotype 2a Virus (Lunet-CD81) EC50 (μM)
[35] = RLuc-1 cells, 72 hours, bioluminescence, read-out: HCV-1a Replicon EC50

SMILES: C[C@@]1(O)[C@H](O)[C@@H](CO)O[C@H]1n1cnc2c(N)ncnc21 [2′CMA]
- EC50 [1]: 0.3 ± 0.02 µM
- EC50 [2, 31]: 0.3 ± 0.03 µM
- EC50 [3]: 0.23 ± 0.3 µM

SMILES: Nc1nc(N2CCN(C(=O)COc3ccc(Br)cc3)CC2)c2nc(CCc3ccc(F)cc3)sc2n1 [Example 52, 1-(4-(5-amino-2-(4-fluorophenethyl)thiazolo[5,4-d]pyrimidin-7-yl)piperazin-1-yl)-2-(4-bromophenoxy)ethanone]
- HCV-1a Replicon Selectivity Index [4]: >1.3
- EC50 [4, 32]: 35.3 µM
- EC50 ([5]; HeLa): > 50 µg/mL
- EC50 ([5]; Vero): 0.49 µg/mL (≈ 0.857 µM)
- EC50 ([6]; HeLa): 0.39 µg/mL (≈ 0.682 µM)
- EC50 ([6]; Vero): 0.12 µg/mL (≈ 0.21 µM)
- CC50 [7]: > 50 µg/mL
- EC50 [8]: > 50 µg/mL
- EC50 [9]: > 50 µg/mL
- EC50 [10]: > 50 µg/mL
- CC50 [11]: 95700 nM
- CC50 [12]: > 50 µg/mL
- EC50 [13, 33]: > 95.7 µM
- EC50 ([14]; HeLa): 0.38 µg/mL (≈ 0.665 µM)
- EC50 ([14]; Vero): 0.1 µg/mL (≈ 0.175 µM)
- EC50 [15, 33]: 2.71 µM
- EC50 [16]: > 50 µg/mL
- EC50 [17]: > 50 µg/mL
- CC50 at 72 h [18]: > 44400 nM
- CC50 [19]: 111 µg/mL (≈ 195 µM)
- EC50 [20]: > 50 µg/mL
- EC50 [21]: 15.7 µg/mL (≈ 27.5 µM)
- EC50 [22]: 30.7 µg/mL (≈ 53.7 µM)
- EC50 [23]: > 50 µg/mL
- EC50 [24]: > 50 µg/mL
- EC50 [25]: 21.9 µg/mL (≈ 38.4 µM)
- EC50 [26]: > 50 µg/mL
- EC50 [27]: > 50 µg/mL
- EC50 [28]: > 50 µg/mL

SMILES: Nc1nc(N2CCN(C(=O)COc3ccc(Cl)cc3)CC2)c2nc(C3CC3)sc2n1 [Example 119, 5-amino-2-cyclopropyl-7-[4-(4-chlorophenoxyacetyl)piperazin-1-yl]-thiazolo[5,4-d]pyrimidine]
- EC50 ([1]; Hepatitis C virus): 0.341 ± 0.024 µM
- HCV-1a Replicon Selectivity Index [4]: >87
- EC50 [4, 32]: 0.5 µM
- EC50 ([5]; HeLa): > 50 µg/mL
- EC50 ([5]; Vero): 12.5 µg/mL (≈ 28 µM)
- EC50 [2, 34]: > 50 µM
- EC50 ([6]; HeLa): 24.1 µg/mL (≈ 54.1 µM)
- EC50 ([6]; Vero): 0.34 µg/mL (≈ 0.764 µM)
- CC50 [12]: > 50 µg/mL
- EC50 ([14]; HeLa): 1.21 µg/mL (≈ 2.72 µM)
- EC50 ([14]; Vero): 0.33 µg/mL (≈ 0.742 µM)
- CC50 at 72 h [29]: > 50000 nM
- CC50 at 72 h [18]: > 44400 nM
- CC50 [19]: > 150 µg/mL
- EC50 ([3]; Hepatitis C virus): 0.422 ± 0.104 µM

SMILES: Nc1nc(NCc2ccccc2)c2cc(-c3ccc(F)cc3)sc2n1 [Example 327, 2-amino-4-N-benzylamino-6-(4-fluorophenyl)-thieno[2,3-d]pyrimidine]
- EC50 [4, 35]: 38.6 µM
- CC50 [30]: 23200 nM

SMILES: CCOc1nc(N)nc2sc(-c3ccc(F)cc3)cc12 [Example 363, 4-ethoxy-6-(4-fluorophenyl)thieno[2,3-d]pyrimidin-2-amine]
- CC50 [11]: 432000 nM
- EC50 [13]: ≥ 432 µM
- EC50 [15]: ≥ 432 µM
- melting point: 142 °C

SMILES: CCCc1nc2c(N3CCN(C(=O)COc4ccc(Cl)cc4)CC3)nc(N)nc2[nH]1 [Example 397, 1-(4-(2-amino-8-propyl-9H-purin-64)piperazin-1-yl)-2-(4-chlorophenoxy)ethanone]
- EC50 [1]: 0.14 ± 0.11 µM
- EC50 [4, 35]: 1.1 µM
- EC50 [2, 31]: 31.2 µM
- CC50 [30]: > 44400 nM
- EC50 [3]: 0.181 ± 0.108 µM

SMILES: Nc1nc(N2CCN(C(=O)COc3ccc(Cl)cc3)CC2)c2nc(C3CC3)[nH]c2n1 [Example 398, 1-(4-(2-amino-8-cyclopropyl-9H-purin-6-yl)piperazin-1-yl)-2-(4-chlorophenoxy)ethanone]
- EC50 ([1]; Hepatitis C virus): 0.192 ± 0.008 µM
- HCV-1a Replicon Selectivity Index [4]: >143
- EC50 [4, 32]: 0.3 µM
- EC50 [2, 34]: 29 µM
- CC50 at 72 h [29]: > 50000 nM
- CC50 at 72 h [18]: > 44400 nM
- EC50 ([3]; Hepatitis C virus): 0.274 ± 0.04 µM

SMILES: Cc1nc2c(N3CCN(C(=O)COc4ccc(Cl)cc4)CC3)nc(N)nc2[nH]1 [Example 400, 1-(4-(2-amino-8-methyl-9H-purin-6-yl)piperazin-1-yl)-2-(4-chlorophenoxy)ethanone]
- EC50 ([1]; Hepatitis C virus): 0.188 ± 0.012 µM
- HCV-1a Replicon Selectivity Index [4]: >164
- EC50 [4, 32]: 0.3 µM
- EC50 [2, 34]: > 50 µM
- CC50 at 72 h [29]: > 50000 nM
- CC50 at 72 h [18]: > 44400 nM
- EC50 ([3]; Hepatitis C virus): 0.125 ± 0.035 µM

SMILES: Nc1nc(N2CCN(C(=O)COc3ccccc3)CC2)c2nc(-c3ccc(F)cc3)[nH]c2n1 [Example 401, 1-(4-(2-amino-8-(4-fluorophenyl)-9H-purin-6-yl)piperazin-1-yl)-2-phenoxyethanone]
- EC50 ([1]; Hepatitis C virus): 0.081 ± 0.041 µM
- HCV-1a Replicon Selectivity Index [4]: 26.5
- EC50 [4, 32]: 0.8 µM
- EC50 [2, 34]: 15.4 µM
- CC50 at 72 h [29]: > 50000 nM
- CC50 at 72 h [18]: 20400 nM
- EC50 ([3]; Hepatitis C virus): 0.059 ± 0.008 µM

SMILES: CSc1nc2c(N3CCN(C(=O)COc4ccc(Cl)cc4)CC3)nc(N)nc2n1C [Example 428, 1-(4-(2-amino-9-methyl-8-(methylthio)-9H-purin-6-yl)piperazin-1-yl)-2-(4-chlorophenoxy)ethanone]
- EC50 ([1]; Hepatitis C virus): 0.005 ± 0.002 µM
- HCV-1a Replicon Selectivity Index [4]: >888
- EC50 [4, 32]: 0.05 µM
- EC50 [2, 34]: > 50 µM
- CC50 at 72 h [29]: > 50000 nM
- CC50 at 72 h [18]: > 44400 nM
- EC50 ([3]; Hepatitis C virus): 0.056 ± 0.002 µM
